Data taken from patent US20230058189A1, “QUINOLIN-4-ONE AND 4(1H)-CINNOLINONE COMPOUNDS AND METHODS OF USING SAME” (Frequency Therapeutics, Inc., priority 2019, published 2023).

Assays:
[1] = Caco-2 cell permeability assay; assay type: in vitro ADME; details: human, pH 7.4, approximate values; for efflux ratio at 2 h, 10 µM: Caco-2, Papp (B-A)/Papp (A-B); for Papp A→B at 2 h, 10 μM: Caco-2, apical to basolateral
Description: A Caco-2 cell permeability assay can be used for in vitro prediction of drug permeability and absorption, an important feature for a compound to be useful for methods described herein. The apparent permeability (Papp) of the compounds of the present disclosure were determined in Caco-2 cells to measure the rate of drug transport per surface area of the cell membrane. Further the efflux ratios of the compounds of the present disclosure were measured in Caco-2 cells to determine the apparent permeability coefficient in basolateral to apical direction with respect to the apparent permeability coefficient in apical to basolateral direction.
50 μL and 25 mL of cell culture medium were added to each well of the Transwell insert and reservoir, respectively. The HTS transwell plates were incubated at 37° C., 5% CO2 for 1 hour before cell seeding. Caco-2 cells were diluted to 6.86×10^5 cells/mL with culture medium and 50 μL of cell suspension were dispensed into the filter well of the 96-well HTS Transwell plate. Cells were cultivated for 14-18 days in a cell culture incubator at 37° C., 5% CO295% relative humidity. Cell culture medium was replaced every other day, beginning no later than 24 hours after initial plating.
Medium was removed from the reservoir and each Transwell insert and replaced with prewarmed fresh culture medium. Transepithelial electrical resistance (TEER) across the monolayer was measured using Millicell Epithelial Volt-Ohm measuring system (Millipore, USA). The Plate was returned to the incubator once the measurement was done. The TEER value was calculated according to the following equation: TEER measurement (ohms)×Area of membrane (cm^2)=TEER value (ohm·cm^2).
To prepare the HBSS (25 mM HEPES, pH 7.4), accurately weigh 5.958 g of HEPES and 0.35 g sodium hydrogen carbonate and add into 900 mL of pure water, then sonicate to dissolve the content. Transfer 100 mL of 10× HBSS into the solution, and place the solution on a stirrer, slowly adjust pH with sodium hydrate to 7.4, following with filtering. Add 6 μL of stock solution (10 mM) of test compound or control compound to 24 μL of DMSO into the same well to obtain 2 mM stock solutions. Transfer 3 μL of 2 mM solution into 597 μL of transport buffer in one 96 well plate to prepare the 10 μM compound working solution. Shake the plate at 1000 rpm for 10 min. The final concentration of DMSO in the incubation system was 0.5%. Metoprolol, erythromycin, and cimetidine were used as control compounds.
Assays can be conducted using Caco-2 cells to assay transport of a compound or composition For example, Caco-2 plates prepared as described above were removed from the incubator. Monolayers were washed twice with pre-warmed HBSS (25 mM HEPES, pH 7.4), then the plates were incubated at 37° C. for 30 minutes. To determine the rate of drug transport in the apical to basolateral direction, 108 μL of the working solution was added to the Transwell insert (apical compartment), and 8 μL sample was immediately transferred from the apical compartment to 72 μL transport buffer and 240 μL of acetonitrile containing IS (100 nM alprazolam, 200 nM caffeine and 100 nM tolbutamide) in a new 96-well plate as the initial donor sample (A-B). The samples were then vortexed at 1000 rpm for 10 minutes. The wells in the receiver plate (basolateral compartment) were filled with 300 μL of transport buffer. To determine the rate of drug transport in the basolateral to apical direction, 308 μL of the working solution were added to the receiver plate wells (basolateral compartment), and 8 μL sample was immediately transferred from the basolateral compartment to 72 μL transport buffer and 240 μL of acetonitrile containing IS (100 nM alprazolam, 200 nM caffeine and 100 nM tolbutamide) into a new 96-well plate as the initial donor sample (B-A), then Vortexed at 1000 rpm for 10 minutes. The Transwell insert (apical compartment) was filled with 100 μL of transport buffer. […]

Foxo-1 = Foxo-1 (Homo sapiens, UniProt Q12778); details: from Molecular Pharmacology (2010), 78(5), 961-970; approximate values; read-out: Potency Foxo-1; cited from earlier work
Sequence of Foxo-1 (Q12778 whole entry, species assumed): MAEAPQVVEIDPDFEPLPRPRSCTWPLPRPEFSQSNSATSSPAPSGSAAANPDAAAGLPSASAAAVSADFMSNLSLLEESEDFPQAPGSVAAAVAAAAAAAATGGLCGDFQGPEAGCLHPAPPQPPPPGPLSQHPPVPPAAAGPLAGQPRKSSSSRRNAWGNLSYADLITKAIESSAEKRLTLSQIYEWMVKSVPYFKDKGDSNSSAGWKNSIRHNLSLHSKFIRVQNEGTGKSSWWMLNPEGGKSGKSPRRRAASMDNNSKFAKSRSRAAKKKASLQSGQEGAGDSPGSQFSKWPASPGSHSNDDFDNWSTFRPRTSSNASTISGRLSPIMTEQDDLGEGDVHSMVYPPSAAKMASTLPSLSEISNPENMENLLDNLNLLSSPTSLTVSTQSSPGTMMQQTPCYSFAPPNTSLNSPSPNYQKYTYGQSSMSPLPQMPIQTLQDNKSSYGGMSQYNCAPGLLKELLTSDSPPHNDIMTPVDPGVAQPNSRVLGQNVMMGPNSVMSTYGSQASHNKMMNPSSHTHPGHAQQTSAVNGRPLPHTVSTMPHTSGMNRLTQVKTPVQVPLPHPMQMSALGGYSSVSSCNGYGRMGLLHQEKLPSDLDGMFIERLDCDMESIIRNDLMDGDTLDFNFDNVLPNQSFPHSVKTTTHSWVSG

Row | Structure (SMILES) | efflux ratio at 2 h, 10 µM [1] | Papp A→B at 2 h, 10 μM [1] | IC50 (Foxo-1)
1 | CCn1cc(C(=O)O)c(=O)c2c(N)c(F)c(N3CCC(N[C@@H]4C[C@H]4c4ccccc4)CC3)cc21 (relative stereo) [Compound I-26] | 0.85 | 7.9 ×10⁻⁶ cm/s | –
2 | CCn1cc(C(=O)O)c(=O)c2c(N)c(F)c(N[C@@H]3C[C@@H]3c3ccccc3)cc21 (relative stereo) [Compound I-23] | 0.69 | 1.1 ×10⁻⁶ cm/s | –
3 | CCn1cc(C(=O)O)c(=O)c2c(N)c(F)c(NC3Cc4ccccc4C3)cc21 [Compound I-11] | 0.53 | 5.5 ×10⁻⁶ cm/s | –
4 | CCC(CC)n1cc(C(=O)O)c(=O)c2c(C)c(F)c(NC3CCCCC3)cc21 [Compound I-3] | 0.27 | 3.3 ×10⁻⁶ cm/s | < 100 nM
5 | CCn1cc(C(=O)O)c(=O)c2c(N)c(F)c(NCCc3ccccc3)cc21 [Compound I-18] | 0.66 | 11 ×10⁻⁶ cm/s | –
6 | Nc1c(F)c(N[C@@H]2C[C@H]2c2ccccc2)c(F)c2c1c(=O)c(C(=O)O)cn2C1CC1 (relative stereo) [Compound I-32] | 0.47 | 4.2 ×10⁻⁶ cm/s | –
7 | CCn1cc(C(=O)O)c(=O)c2c(N)c(F)c(N[C@@H]3CC[C@H]3c3ccccc3)cc21 (relative stereo) [Compound I-13] | 0.53 | 5.5 ×10⁻⁶ cm/s | –
8 | CCn1cc(C(=O)O)c(=O)c2c(N)c(F)c(NC3CCC3)cc21 [Compound I-12] | 0.72 | 21 ×10⁻⁶ cm/s | –
9 | CCn1cc(C(=O)O)c(=O)c2c(N)c(F)c(Nc3ccccc3)cc21 [Compound I-16] | 0.6 | 17 ×10⁻⁶ cm/s | –
10 | CCn1cc(C(=O)O)c(=O)c2c(N)c(F)c(NC3CCc4ccccc43)cc21 (centres unmarked) [Compound I-10] | 0.56 | 6.3 ×10⁻⁶ cm/s | –
11 | CCn1cc(C(=O)O)c(=O)c2c(N)c(F)c(N[C@H]3CC[C@H](N[C@@H]4C[C@H]4c4ccccc4)CC3)cc21 (relative stereo) [Compound I-27] | 1.96 | 0.94 ×10⁻⁶ cm/s | –
12 | CCn1cc(C(=O)O)c(=O)c2c(N)c(F)c(N[C@@H]3C[C@H]3c3ccccc3)cc21 (single isomer, unassigned) [Compound I-20] | 0.29 | 6.1 ×10⁻⁶ cm/s | –
13 | CCn1cc(C(=O)O)c(=O)c2c(N)c(F)c(NC3CC3)cc21 [Compound I-15] | 0.48 | 38 ×10⁻⁶ cm/s | –
14 | CCn1cc(C(=O)O)c(=O)c2cc(F)c(NC3CCCCC3)cc21 [Compound I-1] | 0.47 | 31 ×10⁻⁶ cm/s | –
15 | CCn1cc(C(=O)O)c(=O)c2c(N)c(F)c(N[C@@H]3CC[C@@H]3c3ccccc3)cc21 (relative stereo) [Compound I-14] | 0.58 | 8.6 ×10⁻⁶ cm/s | –
16 | CCn1cc(C(=O)O)c(=O)c2c(N)c(F)c(NCCN[C@@H]3C[C@H]3c3ccccc3)cc21 (relative stereo) [Compound I-29] | 0.39 | 9.1 ×10⁻⁶ cm/s | –
17 | CCn1cc(C(=O)O)c(=O)c2c(N)c(F)c(NC3CCCC3)cc21 [Compound I-9] | 0.56 | 3.4 ×10⁻⁶ cm/s | –
18 | CCn1cc(C(=O)O)c(=O)c2c(N)c(F)c(NC3CCCCC3)cc21 [Compound I-7] | 0.32 | 13 ×10⁻⁶ cm/s | < 100 nM
19 | CCn1cc(C(=O)O)c(=O)c2c(N)c(F)c(N[C@H]3CC[C@@H](N[C@@H]4C[C@H]4c4ccccc4)CC3)cc21 (relative stereo) [Compound I-28] | 0.48 | 3.1 ×10⁻⁶ cm/s | –
20 | CCn1cc(C(=O)O)c(=O)c2c(N)c(F)c(NCc3ccccc3)cc21 [Compound I-17] | 0.45 | 23 ×10⁻⁶ cm/s | –
21 | CCn1cc(C(=O)O)c(=O)c2c(N)c(F)c(NCCCc3ccccc3)cc21 [Compound I-19] | 0.38 | 5.9 ×10⁻⁶ cm/s | –
22 | CCn1cc(C(=O)O)c(=O)c2c(N)c(F)c(NC3CCOCC3)cc21 [Compound I-8] | 3.02 | 11 ×10⁻⁶ cm/s | –

Second part, led by results:

Row | efflux ratio at 2 h, 10 µM [1] | Papp A→B at 2 h, 10 μM [1] | Structure (SMILES) | IC50 (Foxo-1)
23 | 0.5 | 0.32 ×10⁻⁶ cm/s | CCn1cc(C(=O)O)c(=O)c2c(N)c(F)c(N[C@H]3C[C@H](c4ccccc4)C3)cc21 [Compound I-60] | –
24 | 2.1 | 4.1 ×10⁻⁶ cm/s | CCn1cc(C#N)c(=O)c2c(N)c(F)c(NCCN[C@@H]3C[C@H]3c3ccccc3)cc21 (relative stereo) [Compound I-84] | –
25 | 1.3 | 5.1 ×10⁻⁶ cm/s | CCn1cc(C(N)=O)c(=O)c2c(N)c(F)c(NCCN[C@H]3C[C@@H]3c3ccccc3)cc21 (relative stereo) [Compound I-83] | –
26 | 0.75 | 1.6 ×10⁻⁶ cm/s | CCn1cc(C#N)c(=O)c2c(N)c(F)c(N[C@@H]3C[C@H]3c3ccccc3)cc21 (relative stereo) [Compound I-38] | –
27 | 1.04 | 9.7 ×10⁻⁶ cm/s | CCn1cc(C(=O)O)c(=O)c2c(N)c(F)c(N(C)CCN[C@H]3C[C@@H]3c3ccccc3)cc21 (relative stereo) [Compound I-50] | –
28 | 58 | 1.8 ×10⁻⁶ cm/s | CCn1cc(C(N)=O)c(=O)c2c(N)c(F)c(NCCc3ccccc3)cc21 [Compound I-66] | –
29 | 1.4 | 5 ×10⁻⁶ cm/s | Cn1cc(C(=O)O)c(=O)c2c(N)c(F)c(NCCN[C@@H]3C[C@H]3c3ccccc3)cc21 (relative stereo) [Compound I-86] | –
30 | 0.63 | 0.06 ×10⁻⁶ cm/s | CCn1cc(-c2nnn[nH]2)c(=O)c2c(N)c(F)c(NCCc3ccccc3)cc21 [Compound I-68] | –
31 | 0.78 | 4.6 ×10⁻⁶ cm/s | CCn1cc(C(=O)O)c(=O)c2c(N)c(F)c(NC3CN(c4ccccc4)C3)cc21 [Compound I-69] | –
32 | 1.2 | 2.4 ×10⁻⁶ cm/s | CCn1cc(C(=O)O)c(=O)c2c(N)c(F)c(NC3CC(N[C@@H]4C[C@H]4c4ccccc4)C3)cc21 (relative stereo) [Compound I-70] | –
33 | 1.4 | 4.7 ×10⁻⁶ cm/s | CCCn1cc(C(=O)O)c(=O)c2c(N)c(F)c(NCCN[C@@H]3C[C@H]3c3ccccc3)cc21 (relative stereo) [Compound I-87] | –
34 | 0.59 | 5.9 ×10⁻⁶ cm/s | CCn1cc(C(=O)O)c(=O)c2c(N)c(F)c(NCCN[C@@H]3C[C@]34CCc3ccccc34)cc21 (relative stereo) [Compound I-81] | –
35 | 0.24 | 2.2 ×10⁻⁶ cm/s | CCn1cc(C#N)c(=O)c2c(N)c(F)c(NCCc3ccccc3)cc21 [Compound I-67] | –
36 | 0.85 | 0.11 ×10⁻⁶ cm/s | CCn1cc(C(=O)O)c(=O)c2c(N)c(F)c(N[C@H]3C[C@@H](c4ccccc4)C3)cc21 [Compound I-61] | –
37 | 38 | 0.82 ×10⁻⁶ cm/s | CCn1cc(C(=O)O)c(=O)c2c(N)c(F)c(Nc3ccc([C@@H]4C[C@H]4N)cc3)cc21 (relative stereo) [Compound I-62] | –
38 | 0.4 | 7.1 ×10⁻⁶ cm/s | CCn1cc(C(=O)O)c(=O)c2c(N)cc(NCCCc3ccccc3)cc21 [Compound I-57] | –
39 | 0.58 | 6.4 ×10⁻⁶ cm/s | CCn1cc(C(=O)O)c(=O)c2c(N)cc(N[C@@H]3C[C@H]3c3ccccc3)cc21 (relative stereo) [Compound I-59] | –
